Laboratory results as given in US7034039B2, “Fused heterocyclic compounds” (Takeda Pharmaceutical Company Limited, priority 2001, dated 2006).
Where a name gives a salt, the structure may show the parent alone.

Molecular target: T1, Caco-2-derived dipeptidyl peptidase IV (Homo sapiens, UniProt P27487)
T1 construct: A dipeptidyl peptidase IV crude enzyme solution was prepared from culture cell of Caco-2 (ATCC HTB-37); endogenous in cells; host or cells: Caco-2 (ATCC HTB-37)
Assay: Determination of Caco-2-derived dipeptidyl peptidase IV inhibitory activity
Type: biochemical
Conditions: Caco-2 crude enzyme solution, substrate Gly-Pro-p-NA, 37° C., absorbance 405 nm after 0 h and 3 h
Experimental: 1) Preparation of Dipeptidyl Peptidase IV Crude Enzyme Solution
A dipeptidyl peptidase IV crude enzyme solution was prepared from culture cell of Caco-2 (ATCC HTB-37). The Caco-2 cells were cultured in D-MEM medium (manufactured by Nissui Pharmaceutical Co., Ltd.) containing 10% FBS (fetal calf serum (manufactured by GIBCO)). The cell extract was prepared by soaking the cells collected by removing the medium in 20 mM phosphate buffer. (pH 7.5) containing 0.5% Triton X-100, extracting for 30 min in an ice bath and separating the supernatant obtained by centrifugation 1500 g for 30 min. The cell extract (22 ml) was applied to a column of Sephadex G-200 (600 ml, manufactured by Pharmacia Corporation) equilibrated with 20 mM Tris-hydrochloride buffer (pH 7.5) and eluted with the same buffer. The elution was fractionated by 10 ml, examined for enzyme activity and 190 ml–280 ml fractions (90 ml) were collected. […]
An N,N-dimethylformamide solution (5 μl) containing the test compound was added to a mixture of water (25 μl), 1M Tris-hydrochloride buffer (10 μl, pH 7.5) and 1 mM aqueous glycylprolyl-p-nitroanilide (Gly-Pro-p-NA; manufactured by Backem AG) solution (50 μl) to prepare a mixed solution. […] The absorbance after 0 h and 3 h was measured using a microplate reader (Multiskan Bichromatic; manufactured by Labsystems) at a wavelength of 405 nm and an increase (ΔODs) was determined. […]

T1 sequence (P27487 whole entry): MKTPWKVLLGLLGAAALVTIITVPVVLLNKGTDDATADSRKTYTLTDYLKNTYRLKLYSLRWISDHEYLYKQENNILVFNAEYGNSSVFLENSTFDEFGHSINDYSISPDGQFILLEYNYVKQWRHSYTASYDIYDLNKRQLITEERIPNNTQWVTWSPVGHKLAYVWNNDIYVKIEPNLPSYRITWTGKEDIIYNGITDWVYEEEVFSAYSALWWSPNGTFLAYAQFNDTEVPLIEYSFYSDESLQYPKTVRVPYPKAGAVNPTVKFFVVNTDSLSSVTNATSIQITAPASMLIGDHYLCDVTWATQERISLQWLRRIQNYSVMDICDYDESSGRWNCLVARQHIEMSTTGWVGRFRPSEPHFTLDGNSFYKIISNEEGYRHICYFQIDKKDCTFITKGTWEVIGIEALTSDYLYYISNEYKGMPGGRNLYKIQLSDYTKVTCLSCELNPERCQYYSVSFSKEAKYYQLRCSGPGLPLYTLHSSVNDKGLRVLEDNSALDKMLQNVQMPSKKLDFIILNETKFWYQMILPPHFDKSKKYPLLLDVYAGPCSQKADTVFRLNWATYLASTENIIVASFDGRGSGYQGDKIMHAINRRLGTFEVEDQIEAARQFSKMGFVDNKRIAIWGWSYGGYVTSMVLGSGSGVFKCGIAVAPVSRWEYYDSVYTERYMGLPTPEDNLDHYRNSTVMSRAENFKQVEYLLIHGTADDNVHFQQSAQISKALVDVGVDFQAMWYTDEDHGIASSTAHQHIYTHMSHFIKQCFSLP

Row | Compound | IC50 [nM]
1 | CCCCOc1c(CN)n(CC(C)(C)C)c(=O)c2ccc(OCC(N)=O)cc12 [Example 95, 2-{{3-(Aminomethyl)-4-butoxy-2-neopentyl-1-oxo-1,2-dihydro-6-isoquinolinyl}oxy}acetamide hydrochloride] | 280
2 | CC(=O)Nc1ccc2c(=O)n(CC(C)C)c(CN)c(-c3ccccc3)c2c1.Cl [Example 112, 6-Acetylamino-3-aminomethyl-2-isobutyl-4-phenyl-1(2H)-isoquinolinone hydrochloride] | 250

Molecular target: T2, dipeptidyl peptidase IV in rat plasma (Rattus norvegicus, UniProt P14740)
T2 construct: Plasma (20 μl) prepared from blood of SD rat by a conventional method; from tissue; host or cells: plasma of SD rat
Assay: Determination of dipeptidyl peptidase IV inhibitory activity in rat plasma
Type: biochemical
Conditions: SD rat plasma, substrate Gly-Pro-p-NA, 30° C., absorbance 405 nm after 0 h and 1 h
Experimental: Determination of Dipeptidyl Peptidase IV Inhibitory Activity in Rat Plasma
An N,N-dimethylformamide solution (1 μl) containing the test compound was added to a mixture of water (69 μl), 1M Tris-hydrochloride buffer (10 μl, pH 7.5) and 1 mM aqueous Gly-Pro-p-NA solution (100 μl) to prepare a mixed solution. Plasma (20 μl) prepared from blood of SD rat by a conventional method was added the above-mentioned, mixed solution and the enzyme reaction was started at 30° C. The absorbance after 0 h and 1 h was measured using a microplate reader at a wavelength of 405 nm and an increase (ΔODs) was determined. At the same time, an increase (ΔODc) in absorbance of the reaction mixture without the test compound, and an increase (ΔODb) in absorbance of the reaction mixture without the test compound and the enzyme were determined and percent inhibition of dipeptidyl peptidase IV enzyme activity was calculated from the following formula: {1-[(ΔODs−ΔODb)/(ΔODc−ΔODb)]}×100

T2 sequence (P14740 38-767 limits assumed): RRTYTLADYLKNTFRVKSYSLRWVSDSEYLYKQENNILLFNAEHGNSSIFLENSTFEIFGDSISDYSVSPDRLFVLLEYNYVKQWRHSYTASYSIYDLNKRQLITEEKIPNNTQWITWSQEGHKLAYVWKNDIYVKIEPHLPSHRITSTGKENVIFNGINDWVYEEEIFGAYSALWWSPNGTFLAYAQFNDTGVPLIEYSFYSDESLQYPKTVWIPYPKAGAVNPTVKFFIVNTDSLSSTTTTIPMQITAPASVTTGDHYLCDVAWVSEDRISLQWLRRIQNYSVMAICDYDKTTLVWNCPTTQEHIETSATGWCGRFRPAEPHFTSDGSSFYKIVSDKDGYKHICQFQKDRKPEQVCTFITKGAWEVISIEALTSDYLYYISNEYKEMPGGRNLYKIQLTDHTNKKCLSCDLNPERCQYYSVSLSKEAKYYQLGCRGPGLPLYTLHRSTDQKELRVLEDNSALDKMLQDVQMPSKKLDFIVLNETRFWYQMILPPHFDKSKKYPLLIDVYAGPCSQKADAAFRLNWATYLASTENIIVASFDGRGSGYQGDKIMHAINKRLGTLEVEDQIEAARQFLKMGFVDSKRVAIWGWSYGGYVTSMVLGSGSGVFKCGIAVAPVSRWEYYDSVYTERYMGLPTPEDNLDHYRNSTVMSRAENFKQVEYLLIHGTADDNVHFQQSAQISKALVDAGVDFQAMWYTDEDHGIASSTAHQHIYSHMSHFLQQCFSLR

Row | Compound | IC50 [nM]
3 | CCCCOc1c(CN)n(CC(C)(C)C)c(=O)c2ccc(OCC(N)=O)cc12 [Example 95, 2-{{3-(Aminomethyl)-4-butoxy-2-neopentyl-1-oxo-1,2-dihydro-6-isoquinolinyl}oxy}acetamide hydrochloride] | 180
4 | CC(=O)Nc1ccc2c(=O)n(CC(C)C)c(CN)c(-c3ccccc3)c2c1.Cl [Example 112, 6-Acetylamino-3-aminomethyl-2-isobutyl-4-phenyl-1(2H)-isoquinolinone hydrochloride] | 320

System: Wistar fatty rats
Assay: Plasma glucose-lowering effect and insulinotropic effect in rat (oral glucose tolerance test)
Type: in vivo
Conditions: female Wistar fatty rats, 3 mg/kg orally 60 min before glucose load (1 g/kg), blood at 30 min after glucose load
Experimental: Plasma Glucose-lowering Effect and Insulinotropic Effect in Rat
Female Wistar fatty rats (17-week-old, 6 per group) were fasted overnight and blood was drawn from the tail vein. The plasma glucose level before administration of the test compound was measured. Then the test compound (3 mg/kg body weight/5 mL) suspended in 0.5% methyl cellulose was orally administered to the rats using a gastric tube. Oral glucose tolerance test (1 g/kg body weight/5 mL) was started 60 min later. Blood was drawn at 30 min after starting glucose load, and plasma glucose level and insulin level of the serum were measured.

Row | Compound | Plasma glucose level | insulin level
5 | CC(C)Cn1c(CN)c(-c2ccccc2)c2cc(C(N)=O)ccc2c1=O [Example 109, 3-Aminomethyl-2-isobutyl-4-phenyl-1(2H)-isoquinolinone-6-carboxamide hydrochloride [3-(aminomethyl)-2-isobutyl-1-oxo-4-phenyl-1,2-dihydro-6-isoquinolinecarboxamide hydrochloride]] | 73 % of control | 205 % of control
6 | CCCCOc1c(CN)n(CC(C)(C)C)c(=O)c2ccc(OCC(N)=O)cc12 [Example 95, 2-{{3-(Aminomethyl)-4-butoxy-2-neopentyl-1-oxo-1,2-dihydro-6-isoquinolinyl}oxy}acetamide hydrochloride] | 82 % of control | 188 % of control
7 | CC(=O)Nc1ccc2c(=O)n(CC(C)C)c(CN)c(-c3ccccc3)c2c1.Cl [Example 112, 6-Acetylamino-3-aminomethyl-2-isobutyl-4-phenyl-1(2H)-isoquinolinone hydrochloride] | 76 % of control | 255 % of control

System: not given
Assay: not given
Conditions: not given

Row | melting point | Compound
8 | 142 to 144 °C | CC(C)Cn1c(CN)c(-c2ccccc2)c2cc(CC#N)ccc2c1=O.Cl
9 | 232 to 237 °C | CC(C)Cn1c(CN)c(-c2ccccc2)c2cc(-c3nsc(=O)[nH]3)ccc2c1=O.Cl
10 | 129 to 130 °C | CC(C)Cn1c(CN)c(-c2ccccc2)c2ccccc2c1=O [Example 123, 3-(Aminomethyl)-2-isobutyl-4-phenyl-1(2H)-isoquinolinone]
11 | 178 to 180 °C (dec.) | Cc1ccc(-c2c(CN)n(CC(C)C)c(=O)c3ccccc23)cc1.Cl
12 | 119 to 120 °C | CC(C)Cn1c(CN)c(-c2ccc(Cl)cc2)c2ccccc2c1=O [Example 124, 3-(Aminomethyl)-4-(4-chlorophenyl)-2-isobutyl-1(2H)-isoquinolinone]
13 | 253 °C (dec.) | CC(C)Cn1c(CN)c(-c2ccccc2)c2cc(-c3noc(=O)[nH]3)ccc2c1=O.Cl
14 | 218 to 220 °C | CC(C)Cn1c(CN)c(-c2ccccc2)c2cc(SCC(N)=O)ccc2c1=O [Example 171, 2-{[3-(Aminomethyl)-2-isobutyl-1-oxo-4-phenyl-1,2-dihydro-6-isoquinolinyl]sulfanyl}acetamide]
15 | 228 to 230 °C | CC(C)Cn1c(CN)c(-c2ccccc2)c2cc(/C=C/C(N)=O)ccc2c1=O [Example 160, (E)-3-[3-(Aminomethyl)-2-isobutyl-1-oxo-4-phenyl-1,2-dihydro-6-isoquinolinyl]-2-propenamide]
16 | 123 to 124 °C | CC(C)Cn1c(CN)c(-c2ccccc2)c2cc(Cl)ccc2c1=O [Example 118, 3-(Aminomethyl)-6-chloro-2-isobutyl-4-phenyl-1(2H)-isoquinolinone]
17 | 173 to 174 °C | CC(C)(C)Cn1c(CN)c(-c2ccccc2)c2cc(Cl)ccc2c1=O [Example 122, 3-(Aminomethyl)-6-chloro-2-neopentyl-4-phenyl-1(2H)-isoquinolinone]
18 | 209 °C (dec.) | CC(C)Cn1c(CN)c(-c2ccccc2)c2cc(S(C)(=O)=O)ccc2c1=O.Cl
19 | 129 to 130 °C | CC(C)Cn1c(CN)c(-c2ccccc2)c2cc(Br)ccc2c1=O [Example 106, 3-Aminomethyl-6-bromo-2-isobutyl-4-phenyl-1(2H)-isoquinolinone]
20 | 126 to 127 °C | CCn1c(CN)c(-c2ccccc2)c2cc(Cl)ccc2c1=O [Example 113, 3-(Aminomethyl)-6-chloro-2-ethyl-4-phenyl-1(2H)-isoquinolinone]
21 | 218 to 220 °C | CC(C)Cn1c(CN)c(-c2ccccc2)c2cc(-c3nn[nH]n3)ccc2c1=O.Cl
22 | 162 to 163 °C | Cc1csc(-c2ccc3c(=O)n(CC(C)C)c(CN)c(-c4ccccc4)c3c2)n1 (hydrate or solvate) [Example 194, 3-(Aminomethyl)-2-isobutyl-6-(4-methyl-1,3-thiazol-2-yl)-4-phenyl-1(2H)-isoquinolinone]
23 | 167 °C (dec.) | CC(C)Cn1c(CN)c(-c2ccccc2)c2cc([S+](C)[O-])ccc2c1=O (centres unmarked) [Example 172, 3-(Aminomethyl)-2-isobutyl-6-(methylsulfinyl)-4-phenyl-1(2H)-isoquinolinone]
24 | 223 to 225 °C | CC(C)Cn1c(CN)c(-c2ccccc2)c2cc(/C=C/C(N)=O)ccc2c1=O.Cl (hydrate or solvate)
25 | 179 °C (dec.) | CC(=O)c1ccc2c(=O)n(CC(C)C)c(CN)c(-c3ccccc3)c2c1.Cl
26 | 179 to 181 °C | CC1=NN(c2ccc3c(=O)n(CC(C)C)c(CN)c(-c4ccccc4)c3c2)CO1 [Example 166, 3-(Aminomethyl)-2-isobutyl-6-(5-methyl-1,3,4-oxadiazol-3-yl)-4-phenyl-1(2H)-isoquinolinone]
27 | 247 to 249 °C | CC(C)Cn1c(CN)c(-c2ccc(Cl)cc2)c2cc(O)ccc2c1=O.Cl
28 | 252 to 255 °C | CSc1ccc2c(=O)n(CC(C)C)c(CN)c(-c3ccccc3)c2c1.Cl

The remaining lines, values behind:

Row | Compound | melting point
29 | CCCCOc1c(CN)n(CC(C)C)c(=O)c2ccc(NC(=O)C(C)C)cc12.Cl | 181 to 183 °C
30 | Cc1ccc(-c2c(CN)n(CC(C)C)c(=O)c3ccc(OCC(N)=O)cc23)cc1.Cl (hydrate or solvate) | 278 to 280 °C
31 | CC(C)Cn1c(CN)c(-c2cccc(F)c2)c2cc(OCC(N)=O)ccc2c1=O.Cl | 209 to 210 °C
32 | CC(C)Cn1c(CN)c(OCCCC(F)(F)F)c2cc(OCC(N)=O)ccc2c1=O.Cl (hydrate or solvate) | 147 to 148 °C
33 | CCCCOc1c(CN)n(CC2CC2)c(=O)c2ccc(OCC(N)=O)cc12.Cl (hydrate or solvate) | 133 to 134 °C
34 | CCCCOc1c(CN)n(CC(C)C)c(=O)c2ccc(OCC(N)=O)cc12.Cl (hydrate or solvate) | 248 to 250 °C
35 | CCCCOc1c(CN)n(CC2CC2)c(=O)c2ccc(-c3cnco3)cc12.Cl | 124 to 126 °C
36 | CCCCOc1c(CN)n(CC2CC2)c(=O)c2ccc(C(N)=O)cc12.Cl (hydrate or solvate) | 164 to 165 °C
37 | CCCCOc1c(CN)n(CC(C)C)c(=O)c2ccc(-c3cnco3)cc12.Cl | 211 to 213 °C
38 | CC(C)Cn1c(CN)c(-c2ccc(F)cc2)c2cc(OCC(N)=O)ccc2c1=O.Cl | 189 to 190 °C
39 | CCCCOc1c(CN)n(CC2CC2)c(=O)c2ccc(/C=C/C(N)=O)cc12.Cl | 188 to 190 °C
40 | CCCCOc1c(CN)n(CC(C)(C)C)c(=O)c2ccc(/C=C/C(N)=O)cc12.Cl (hydrate or solvate) | 187 to 188 °C
41 | Cc1ccc(-c2c(CN)n(CC(C)C)c(=O)c3ccc(O)cc23)cc1.Cl | 255 to 256 °C
42 | CC(C)Cn1c(CN)c(-c2ccc(F)cc2)c2cc(/C=C/C(=O)O)ccc2c1=O.Cl | 255 to 256 °C
43 | CCCCOc1c(CN)n(CC(C)C)c(=O)c2ccc(/C=C/C(N)=O)cc12.Cl | 223 to 225 °C
44 | CCCCOc1c(CN)n(CC(C)(C)C)c(=O)c2ccc(OCC(N)=O)cc12 (as salt: hydrochloride) [Example 95, 2-{{3-(Aminomethyl)-4-butoxy-2-neopentyl-1-oxo-1,2-dihydro-6-isoquinolinyl}oxy}acetamide hydrochloride] | 233 to 235 °C
45 | CCCCOc1c(CN)n(CC(C)C)c(=O)c2ccc(C#N)cc12.Cl | 135 to 136 °C
46 | CCCCOc1c(CN)n(CC(C)(C)C)c(=O)c2ccc(CC(N)=O)cc12.Cl | 163 to 165 °C
47 | CCCCOc1c(CN)n(CC(C)C)c(=O)c2ccc(C(N)=S)cc12.Cl | 200 to 202 °C
